Test systems include SF-268; COLO 205; NCI/ADR-RES; UACC-62; U-251; SK-MEL-5; SN12C; HCT-116; Hs-578T; Malme-3M; NCI-H226; SK-MEL-2; SK-MEL-28; HCC 2998; SF-539; SNB-19; ACHN; MDA-N; UO-31; BT-549.
Assay in all cases: NCI-60 cell line screen, 48 h

Molecules are shown by their SMILES.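 The compound was tested at five concentrations on cells cultured in 96-well plates, with a 48-hour exposure period. GI50 marks 50% less growth.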 Activity calls are given as the source filed them. Cut-off read from the data, not from the text of the source: active = GI50 up to about 1.1 µM and inactive = higher.

As for `CC1(c2ccccc2)N=c2[nH]cnc2=C(C(N)=O)N1` (stereo not drawn), the GI50 with SF-268, with COLO 205, in the experiment on NCI/ADR-RES, in the experiment on UACC-62, with U-251 and with SK-MEL-5 was > 100 µM (inactive) each time. Also, the GI50 with SN12C, in the experiment on HCT-116, with Hs-578T, with Malme-3M, in the experiment on NCI-H226 and in the experiment on SK-MEL-2 was > 100 µM (inactive) throughout. The GI50 in the experiment on SK-MEL-28, in the experiment with HCC 2998, with SF-539, in the experiment with SNB-19, in the experiment with ACHN and in the experiment on MDA-N was > 100 µM (inactive) in each case.

`C=C(C)CCN[Si](c1ccccc1)(c1ccccc1)C(C)(C)C`: the GI50 with SF-268 is 30.5 µM (inactive); with COLO 205, 18.5 µM (inactive); with UACC-62 it was 17 µM (inactive); in the experiment on U-251, 15.4 µM (inactive); with SK-MEL-5, 19 µM (inactive); with SN12C it was 18.2 µM (inactive). Besides, the GI50 with HCT-116 is 14.6 µM (inactive); in the experiment on Malme-3M, 20.5 µM (inactive); in the experiment on NCI-H226, 12.1 µM (inactive); with UO-31, 13.7 µM (inactive); in the experiment with SK-MEL-2, 15.2 µM (inactive); with SK-MEL-28 it was 20.3 µM (inactive). The GI50 in the experiment with HCC 2998 is 21.1 µM (inactive); with SF-539 it was 15.6 µM (inactive); with SNB-19, 18.4 µM (inactive); in the experiment on ACHN, 26 µM (inactive).

For the compound `CN(C)c1ccc(/C(Br)=C2\OC(=O)c3ccccc32)cc1`, the GI50 with SF-268 is > 100 µM (inactive); with COLO 205, 56.1 µM (inactive); in the experiment with NCI/ADR-RES it was 31.8 µM (inactive); in the experiment on UACC-62, > 100 µM (inactive); in the experiment with U-251, > 100 µM (inactive); in the experiment with SK-MEL-5, 77.6 µM (inactive). In addition, the GI50 was > 100 µM (inactive) with SN12C; > 100 µM (inactive) with HCT-116; > 100 µM (inactive) in the experiment on Hs-578T; 67.1 µM (inactive) with Malme-3M; 24.4 µM (inactive) with NCI-H226; > 100 µM (inactive) in the experiment on UO-31. Further, the GI50 in the experiment with SK-MEL-2 was 92.9 µM (inactive); in the experiment on SK-MEL-28, > 100 µM (inactive); in the experiment with HCC 2998, > 100 µM (inactive); with SF-539, > 100 µM (inactive); in the experiment with SNB-19, > 100 µM (inactive); in the experiment with ACHN, > 100 µM (inactive). The GI50 in the experiment with MDA-N was 40.1 µM (inactive).

Turning to `Cc1cc(C)n(C(C)(C(=O)Cc2ccccc2)n2nc(C)cc2C)n1`, the GI50 in the experiment on SF-268, in the experiment with COLO 205, in the experiment on NCI/ADR-RES, with UACC-62, in the experiment on U-251 and in the experiment on SK-MEL-5 was > 100 µM (inactive) in each case. Also, the GI50 in the experiment on SN12C, with HCT-116, in the experiment on Hs-578T, with Malme-3M, with NCI-H226 and in the experiment with UO-31 was > 100 µM (inactive) throughout. The GI50 in the experiment on SK-MEL-2, in the experiment with SK-MEL-28, in the experiment with HCC 2998, in the experiment on SF-539, in the experiment with SNB-19 and in the experiment on ACHN was > 100 µM (inactive) throughout. Further, the GI50 in the experiment on MDA-N is > 100 µM (inactive).

For `CCCCCCCCCCCCC(=O)OC(c1cnco1)c1nc(C(O)CC(O)C(O)C(C)O)co1` (stereo not drawn), the GI50 in the experiment with SF-268 was 0.333 µM (active); in the experiment with COLO 205, 0.273 µM (active); in the experiment with NCI/ADR-RES, > 10 µM (inactive); in the experiment on UACC-62 it was 0.341 µM (active); in the experiment with U-251 it was 0.129 µM (active); with SK-MEL-5 it was 0.719 µM (active). The GI50 with SN12C was 1.78 µM (inactive); with HCT-116, 0.157 µM (active); in the experiment on Hs-578T, 1.53 µM (inactive); in the experiment on Malme-3M, 0.828 µM (active); with NCI-H226, 9.18 µM (inactive); in the experiment on UO-31 it was 8.97 µM (inactive). In addition, the GI50 is 0.63 µM (active) with SK-MEL-2; 0.5 µM (active) with SK-MEL-28; 1.31 µM (inactive) with HCC 2998; 0.942 µM (active) with SF-539; 11.3 µM (inactive) in the experiment with SNB-19; 1.45 µM (inactive) with ACHN. In addition, the GI50 in the experiment on MDA-N was 1.95 µM (inactive).

As to `O=C1CSc2nc3ccccc3n2/C=N\N1`, the GI50 with SF-268, with COLO 205, in the experiment with NCI/ADR-RES, with UACC-62, in the experiment on U-251 and in the experiment on SK-MEL-5 was > 100 µM (inactive) throughout. In addition, the GI50 in the experiment with SN12C, in the experiment with HCT-116, in the experiment on NCI-H226, in the experiment with UO-31, in the experiment on SK-MEL-2 and with SK-MEL-28 was > 100 µM (inactive) throughout. The GI50 in the experiment with HCC 2998, in the experiment on SNB-19, with ACHN and in the experiment on MDA-N was > 100 µM (inactive) in each case.

With `CCN1CCC(O)(/C=C/c2cccc(C)c2)C(C(=O)/C=C/c2cccc(C)c2)C1` (stereo not drawn), the GI50 in the experiment with SF-268 is 1.74 µM (inactive); in the experiment with COLO 205, 1.95 µM (inactive); in the experiment with NCI/ADR-RES it was 2.19 µM (inactive); with UACC-62, 1.82 µM (inactive); in the experiment with U-251 it was 1.72 µM (inactive); in the experiment with SK-MEL-5, 1.88 µM (inactive). Besides, the GI50 in the experiment with SN12C is 2.47 µM (inactive); in the experiment with HCT-116 it was 2.18 µM (inactive); in the experiment with Hs-578T, 2.33 µM (inactive); in the experiment with Malme-3M, 1.57 µM (inactive); in the experiment with NCI-H226, 2.42 µM (inactive); in the experiment on UO-31, 1.69 µM (inactive). The GI50 in the experiment with SK-MEL-2 was 2.31 µM (inactive); in the experiment on SK-MEL-28 it was 2.19 µM (inactive); in the experiment on HCC 2998 it was 1.6 µM (inactive); in the experiment on SF-539, 2.17 µM (inactive); in the experiment with SNB-19, 4.31 µM (inactive); in the experiment with ACHN, 1.59 µM (inactive). Further, the GI50 in the experiment with MDA-N is 2.66 µM (inactive).

In the case of `Cc1ccc(NC(=O)c2cc3ccccc3c(/N=N\c3ccccc3O)c2O)c(C)c1`, the GI50 in the experiment on SF-268 is 0.687 µM (active); in the experiment on COLO 205 it was 3.02 µM (inactive); in the experiment on NCI/ADR-RES, 1.54 µM (inactive); with SK-MEL-5 it was 1.03 µM (active); in the experiment with HCT-116 it was 0.664 µM (active); with Hs-578T, 1.64 µM (inactive). In addition, the GI50 in the experiment with Malme-3M was 0.809 µM (active); with NCI-H226, 2.82 µM (inactive); with SK-MEL-2, 2.98 µM (inactive); in the experiment on SK-MEL-28, 5.09 µM (inactive); with HCC 2998 it was 5.06 µM (inactive); in the experiment on SNB-19, 1.2 µM (inactive). Further, the GI50 with ACHN is 1.88 µM (inactive).

Take `CC(C)(C)CC(C)(C)NC(=S)NO`: the GI50 with SF-268, with COLO 205, in the experiment with NCI/ADR-RES, in the experiment on UACC-62, in the experiment on SK-MEL-5 and with SN12C was > 100 µM (inactive) in each case. In addition, the GI50 in the experiment on HCT-116, with Hs-578T, with Malme-3M, in the experiment on NCI-H226, in the experiment on UO-31 and in the experiment on SK-MEL-2 was > 100 µM (inactive) throughout. The GI50 with SK-MEL-28, with HCC 2998, with SF-539, with SNB-19, with ACHN and with MDA-N was > 100 µM (inactive) in each case.

Regarding `COc1ccc(CCNC(=O)[C@H]2CCCC[C@@H]2CCO)cc1OC`, the GI50 in the experiment on SF-268, in the experiment with COLO 205, in the experiment on NCI/ADR-RES, in the experiment with UACC-62, in the experiment with U-251 and in the experiment on SK-MEL-5 was > 100 µM (inactive) in each case. Moreover, the GI50 in the experiment with SN12C was > 100 µM (inactive); in the experiment on HCT-116 it was > 100 µM (inactive); with Hs-578T it was > 100 µM (inactive); with NCI-H226 it was > 100 µM (inactive); in the experiment with UO-31, 54.7 µM (inactive); in the experiment with SK-MEL-2, > 100 µM (inactive). Also, the GI50 in the experiment on SK-MEL-28, in the experiment with HCC 2998, with SF-539, with SNB-19, in the experiment with ACHN and in the experiment with BT-549 was > 100 µM (inactive) in each case.

For the compound `O=C(c1cccs1)c1nccc2c1cnc1ccccc12`, the GI50 in the experiment with SF-268 is 26.2 µM (inactive); in the experiment on COLO 205 it was > 100 µM (inactive); in the experiment with NCI/ADR-RES, > 100 µM (inactive); in the experiment with UACC-62 it was > 100 µM (inactive); with U-251, 41.2 µM (inactive); in the experiment on SK-MEL-5, > 100 µM (inactive). In addition, the GI50 in the experiment on SN12C was > 100 µM (inactive); with HCT-116, 90.8 µM (inactive); in the experiment on Hs-578T, 94.6 µM (inactive); in the experiment with Malme-3M it was > 100 µM (inactive); with NCI-H226, > 100 µM (inactive); in the experiment on UO-31 it was > 100 µM (inactive). Further, the GI50 in the experiment with SK-MEL-2 is > 100 µM (inactive); in the experiment with SK-MEL-28, > 100 µM (inactive); with HCC 2998, > 100 µM (inactive); in the experiment on SF-539 it was > 100 µM (inactive); with SNB-19, > 100 µM (inactive); in the experiment on ACHN, 38.5 µM (inactive).

Values taken from ChEMBL document CHEMBL1201862, “PubChem BioAssay data set” (2004).
